This is an account of results in patent publication US10940139B2, “Compounds that interact with the Ras superfamily for the treatment of cancers, inflammatory diseases, rasopathies, and fibrotic disease” (Shy Therapeutics LLC, priority 2017, dated 2021).

SMILES strings stand for the structures.

The target in the first assay is KRas G12D/Q61H double mutant (Homo sapiens (Human), UniProt P01116, G12D/Q61H). Briefly: Ras GTP binding domain inhibition assay (labeled GTP). Particulars: 20 μM compound; KRas G12D/Q61H double mutant; read-out: % Inhibition at 20 μM of K-Ras mutant and wild-type protein, KRas G12D Q61H. The procedure: Buffer-I: • 50 mM Tris, pH 7.5 • 150 mM NaCl (optional) • 1 mM MgCl2 • 1 mM DTT. • KRas G12D mutant protein was expressed as a His-tagged protein. Purified His-KRas G12D protein was diluted in buffer-I to a final concentration of 3-10 μg/ml. • 200 μl of the diluted His-KRas G12D protein was added to a nickel coated 96 well plate and incubated overnight at 4° C. • The next day, wells were washed 3× in 200 μl of Buffer-I. • Then 200 μl of Buffer-I were added to each well in the presence of 1% DMSO. • Tested compounds were added to the protein-coated wells at a concentration of 20 μM, and incubated for 3 hours at room temperature. While performing IC50 measurements a serial dilution of all tested concentrations was prepared.
Chain of KRas G12D/Q61H double mutant (P01116-2 other isoform, or with tags, fused parts or gaps G12D/Q61H): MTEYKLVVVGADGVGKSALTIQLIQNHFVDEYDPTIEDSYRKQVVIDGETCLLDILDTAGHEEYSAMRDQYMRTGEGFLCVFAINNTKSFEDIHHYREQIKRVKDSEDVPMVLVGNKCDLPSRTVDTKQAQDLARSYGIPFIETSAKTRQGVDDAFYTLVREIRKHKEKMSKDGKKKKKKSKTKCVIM
Then 22 μl of Cy3-GTP or Cy5-GTP was added to each well. The labeled GTP was incubated for 45 min. at room temperature. • Following GTP incubation, wells were washed 3× in Buffer-I, and 200 μl of Buffer-I were added to each well. • Following washes, the amount of bound labeled-GTP was measured with an Eppendorf AF2200 plate reader.
By substituting KRas G12D mutant protein with KRas G12C mutant, KRas wild type, KRas Q61H mutant, KRas G12D/Q61H double mutant or KRas G12C/Q61H double mutant under the assay conditions described above, KRas G12C mutant KRas wild type, KRas Q61H mutant, KRas G12D/Q61H double mutant and KRas G12C/Q61H double mutant inhibition, respectively, were each determined.
With `COc1cccc(CN(C)S(=O)(=O)N(C)Cc2ccc(F)cc2)c1`, the inhibition at 20 µM was in the range of 25 to 50%. Regarding `CCn1c(SCc2csc(-c3ccc(OC)c(OC)c3)n2)nc2ccccc21`, the inhibition at 20 µM lay within 25 to 50%.

Regarding `C=CCn1c(C)cc(C(=O)CSc2nc3ccccc3c(=O)n2C(C)COC)c1C` (stereo not shown), the inhibition at 20 µM lay in the range of 25 to 50%. For the compound `Cc1ccccc1OCCN(C)c1ccc([N+](=O)[O-])c(OC(F)F)c1`, the inhibition at 20 µM fell in the range of 25 to 50%.

Consider `Cc1ccc(CC(C#N)c2c(C#N)c(N)nc(N3CCCCC3)c2C#N)cc1` (stereo not shown), for which the inhibition at 20 µM fell in the range of 1 to 25%. Same read-out and setting: the value for `CC(C)n1cnnc1CNCc1ccc(OCc2ccccc2)cc1OCc1ccccc1` was 1 to 25%; that for `Cc1ccc(C)c(OCc2nnc(SCc3c(C#N)c(C)nn3-c3ccccc3)o2)c1` was 25 to 50%; that for `CCOc1cc(CN(C(=O)CCc2nc(-c3ccsc3)no2)C2CC2)ccc1OC(F)(F)F` was 25 to 50%. For `Cc1cc(C(=O)COC(=O)c2ccccc2[S+](C)[O-])c(C)n1CCC1=CCCCC1` (stereo not shown), the inhibition at 20 µM was in the range of 1 to 25%. On to `Cc1cc(C)c(S(=O)(=O)Nc2ccc(Oc3ccccc3C#N)nc2)c(C)c1`, for which the inhibition at 20 µM lay within 25 to 50%. Still for that read-out and setting: the value for `OCCCCCSc1n[nH]c(-c2ccccn2)n1` was 51 to 75%.

In the case of `COc1ccccc1CN(Cc1coc(-c2ccc(F)cc2)n1)Cc1cccs1`, the inhibition at 20 µM fell in the range of 1 to 25%. `CCOc1ccccc1CN(CCCn1ccnc1)C(=O)Nc1ccc(OC(F)F)c(Cl)c1`: the inhibition at 20 µM was 25 to 50%. For the compound `COc1ccc(-c2nc(CSc3nnc(CC(C)c4ccccc4)o3)cs2)cc1OC` (stereo not shown), the inhibition at 20 µM was 25 to 50%. For the compound `Cc1cc(C)c(-c2csc(C3CC3)n2)cc1C`, the inhibition at 20 µM was 25 to 50%. On to `CCOc1ccccc1N1CC(c2nc3ccccc3n2CCC2CCCCC2)CC1=O` (stereo not shown), for which the inhibition at 20 µM lay in the range of 25 to 50%. Take `CC(C)(C)c1noc(COc2ccc(C(=O)c3ccc(F)cc3)cc2)n1`: the inhibition at 20 µM fell in the range of 25 to 50%. The same measure, in the same setting: the value for `O=C(c1ccc(CSc2nc3ccccc3[nH]2)cc1)N1N=CCC1(O)C(F)(F)F` (stereo not shown) was 25 to 50%; that for `COC(=O)c1ccc(CN2CC(NC(=O)OC(C)(C)C)CCC2C(F)(F)F)cc1` (stereo not shown) was 25 to 50%; that for `OCCN(Cc1ccc(Cl)c(Cl)c1)c1ncc(Br)cn1` was 1 to 25%. The same measure, in the same setting: the value for `Cc1ccc(CN(Cc2ccco2)C(=O)C(c2ccccc2)c2ccccc2)o1` was 25 to 50%.

Still in this assay, the particulars now being: 20 μM compound; read-out: % Inhibition at 20 μM KRas G12D Q61H.
For `CC1CN(Cc2ccccc2)CCN1C(=O)c1csc2c(O)nc(-c3ccccn3)nc12` (stereo not shown), the inhibition at 20 µM was in the range of 25 to 50%. On to `Cc1ccc(-c2nnc(C(C)N3CCCc4ccccc43)o2)cc1` (stereo not shown), for which the inhibition at 20 µM was 1 to 25%. Regarding `Cc1noc(CNc2cc(C(F)(F)F)ccc2N2CCCC2)n1`, the inhibition at 20 µM lay within 25 to 50%. Regarding `CC(=O)N1CCC(C(=O)Nc2nnc(-c3ccccn3)[nH]2)CC1`, the inhibition at 20 µM was in the range of 25 to 50%. With `O=C(NCc1ccccn1)c1ccn(-c2cccc(Cl)c2)n1`, the inhibition at 20 µM lay in the range of 25 to 50%.

On to `CNC(=O)CNc1nc(-c2ccccn2)nc2scc(-c3ccccc3)c12`, for which the inhibition at 20 µM lay within 25 to 50%.

For `CN(C(=O)c1ccc(COc2ccccc2)o1)C1CCCCC1`, the inhibition at 20 µM fell in the range of 1 to 25%. In the case of `Cc1ccc(C(C)C)cc1OS(=O)(=O)N1CCc2ccccc2C1`, the inhibition at 20 µM was in the range of 1 to 25%. For the compound `Cc1ccc(-c2c(C)sc3nc(-c4cnccn4)[nH]c(=O)c23)cc1`, the inhibition at 20 µM lay in the range of 25 to 50%.

Take `Cc1cc(C)n(CCCNC(=O)c2cc(S(=O)(=O)N3CCCCC3)ccc2N2CCOCC2)n1`: the inhibition at 20 µM fell in the range of 25 to 50%. Consider `Clc1csc2nc(-c3ccccn3)nc(N3CCOCC3)c12` [drawing 2707], for which the inhibition at 20 µM is 1 to 25%.

In the case of `COc1ccc(-c2nc(C(=O)NCc3ccccn3)cs2)cc1`, the inhibition at 20 µM was in the range of 1 to 25%. With `COCCCC1CCN(C(=O)c2csc3c(O)nc(-c4ccccn4)nc23)CC1` [drawing 2677], the inhibition at 20 µM was 51 to 75%. For `CN(CC(=O)N1CCOCC1)C(=O)c1ccc(COc2ccc(F)cc2)o1`, the inhibition at 20 µM is 1 to 25%.

As to `O=C(CCc1ccccn1)Nc1nnc(-c2ccccn2)[nH]1`, the inhibition at 20 µM fell in the range of 25 to 50%. As for `CCN1CCN(c2nc(-c3ccccn3)nc3sc(-c4ccccc4)cc23)CC1`, the inhibition at 20 µM was in the range of 25 to 50%. `CC(Nc1nc(-c2ccccn2)nc2c1CCC2)c1ccncc1` (stereo not shown): the inhibition at 20 µM was in the range of 25 to 50%.

On to `CC(C)Cc1nc(CN(C)CC(=O)Nc2ccc(Cl)c(S(=O)(=O)N3CCOCC3)c2)no1`, for which the inhibition at 20 µM fell in the range of 1 to 25%. Consider `O=C(Nc1nnc(-c2ccccn2)[nH]1)c1ccc(N2CCCCC2=O)cc1`, for which the inhibition at 20 µM fell in the range of 25 to 50%. Turning to `CSc1nnc(CN(Cc2ccccc2)Cc2ccccc2)s1`, the inhibition at 20 µM was in the range of 25 to 50%. The same measure, in the same setting: the value for `Cn1c(CNCc2ccccc2OCc2ccccc2)nc2ccccc21` was 25 to 50%. For `COCCn1c(SCc2csc(-c3ccccc3)n2)nc2ccccc21`, the inhibition at 20 µM fell in the range of 25 to 50%. For the compound `Cc1cccc(OC2CCN(c3nc(-c4ccccn4)nc4c3CCC4)CC2)n1`, the inhibition at 20 µM fell in the range of 1 to 25%. Still for that read-out and setting: the value for `CC(C)Cc1cc(C(=O)Nc2cc(-c3cccnc3)n[nH]2)[nH]n1` was 1 to 25%; that for `NC(=O)c1cc(N2CCN(c3cccc(C(F)(F)F)c3)CC2)nc2ccccc12` was 25 to 50%; that for `O=c1[nH]c(-c2ccccn2)nc2ccc(F)cc12` was 25 to 50%. `COCCOCCN(C)C(=O)c1csc2c(O)nc(N)nc12`: the inhibition at 20 µM is 1 to 25%.

With `O=S(=O)(NC(c1ccccc1)c1ccccn1)c1cc(C(F)(F)F)ccc1Cl` (stereo not shown), the inhibition at 20 µM lay in the range of 25 to 50%. Regarding `Cc1cc(NCCNC(=O)c2ccco2)nc(-c2ccccn2)n1`, the inhibition at 20 µM lay within 25 to 50%.

The same assay, now with this note: 20 μM; read-out: KRas G12D Q61H % Inh.
Take `CCOc1cc(S(=O)(=O)N(Cc2ccccc2)Cc2ccccc2)c(OCC)cc1C` [drawing 2624]: the inhibition at 20 µM was in the range of 25 to 50%.

Consider `O=C(Nc1nnc(-c2ccccn2)[nH]1)C1CCCN(C(=O)c2cccs2)C1` (stereo not shown), for which the inhibition at 20 µM lay within 51 to 75%. Same read-out and setting: the same measure for `O=c1nc(-c2ccccn2)[nH]c2scc(-c3cccs3)c12` [drawing 2583]: 51 to 75%; for `Cc1nc(-c2ccccn2)nc(O)c1CCC(=O)NC1CCc2ccccc21` (stereo not shown) [drawing 2597]: 25 to 50%. Same read-out and setting: the same measure for `C[C@H](NS(=O)(=O)c1ccccc1F)C(=O)Nc1nnc(-c2ccccn2)[nH]1` [drawing 2478]: 51 to 75%.

Consider `O=C(Cc1ccccc1)NCCC(=O)Nc1nnc(-c2ccccn2)[nH]1` [drawing 2495], for which the inhibition at 20 µM lay within 51 to 75%. Turning to `Cc1oc(-c2ccccc2)nc1C(=O)Nc1nnc(-c2ccccn2)[nH]1` [drawing 2463], the inhibition at 20 µM is 51 to 75%.

`COc1ccc(COCC(=O)Nc2nnc(-c3ccccn3)[nH]2)cc1` [drawing 2563]: the inhibition at 20 µM lay within 51 to 75%. For `O=C(Cc1cccc(F)c1)Nc1nc(-c2ccccn2)cs1` [drawing 2577], the inhibition at 20 µM is 25 to 50%. Consider `Cc1c(C(=O)N(C)C)sc2[nH]c(-c3ccccn3)nc(=O)c12` [drawing 2590], for which the inhibition at 20 µM was in the range of 25 to 50%. On to `CCOc1cc(C(=O)Oc2c(C)ccc(C)c2C)cc(OCC)c1OCC` [drawing 2622], for which the inhibition at 20 µM lay within 51 to 75%.

As for `O=C(Nc1nnc(-c2ccccn2)[nH]1)c1ccc(=O)[nH]n1` [drawing 2562], the inhibition at 20 µM is 51 to 75%. As for `CC(Oc1ccc(C#N)cc1)C(=O)Nc1nnc(-c2ccccn2)[nH]1` (stereo not shown) [drawing 2525], the inhibition at 20 µM is 51 to 75%. Still for that read-out and setting: the value for `O=C(Nc1nnc(-c2ccccn2)[nH]1)c1ccc(Oc2ccccc2)nc1` [drawing 2491] was 51 to 75%.
